Reference: patent publication US20160362416A1, “ANTIVIRAL COMPOUNDS” (Gilead Sciences, Inc., priority 2012, published 2016)
pEC50: −log10 of the molar value.

Legend:
[1] = system: Q30E in genotype 1a NS5A replicon; assay: Resistance mutant replicon assay, genotype 1a NS5A Q30E; format: cell-based, HCV; conditions: Hepatitis C virus, read-out: 1a Q30E (nM)
Method in brief: (§1)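 Transiently transfected Huh-7-derived cured-51 cells carrying site-directed NS5A mutant Pi-RLuc replicons are exposed to compound for 72 h. Luciferase output is fitted by non-linear regression to give EC50.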

[2] = system: NS5A chimeric genotype 1b Con1 replicon with genotype 3a S52 strain NS5A gene; assay: HCV genotype 3a NS5A chimeric replicon assay; format: cell-based; conditions: Hepatitis C virus, 72 h, read-out: 3a (nM)
Method in brief: (§2)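 EC50 derived by non-linear regression of Renilla luciferase signal measured in lysates 72 h after adding 3-fold serial compound dilutions. Replicons: stable genotype 1b Con1 cells; transient Huh-Lunet transfections of NS5A chimeras—4a ED43 or 3a S52 in Con1, 2b MD2b-1 (M31) in JFH-1.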

[3] = system: Y93H in genotype 3a NS5A replicon; assay: Resistance mutant replicon assay, genotype 3a NS5A Y93H; format: cell-based, HCV; conditions: Hepatitis C virus, read-out: 3a Y93H (nM)
Method in brief: as §1

[4] = system: Q30R in genotype 1a NS5A replicon; assay: Resistance mutant replicon assay, genotype 1a NS5A Q30R; format: cell-based, HCV; conditions: Hepatitis C virus, read-out: 1a Q30R (nM)
Protocol: (§3) Evaluation of cell-based anti-HCV activity: Antiviral potency (EC50) was determined using a Renilla luciferase (RLuc)-based HCV replicon reporter assay. To perform the assay for genotype 1 and 2a JFH-1, stable HCV 1a RLuc replicon cells (harboring a dicistronic genotype 1a H77 replicon that encodes a RLuc reporter), stable HCV lb RLuc replicon cells (harboring a dicistronic genotype 1b Conl replicon that encodes a RLuc reporter), or stable HCV 2a JFH-1 Rluc replicon cells (harboring a dicistronic genotype 2a JFH-1 replicon that encodes a RLuc reporter; with L31 present in NS5A) were dispensed into 384-well plates for EC50 assays. To perform the assay for genotype 2a (with M31 present in NS5A) or 2b, NS5A chimeric genotype 2a JFH-1 replicons that encodes a RLuc-Neo reporter and either genotype 2a J6 strain NS5A gene or genotype 2b MD2b-1 strain NS5A gene (both with M31 present) respectively, were either transiently transfected (t) into Huh-Lunet cells or were established as stably replicating replicon cells (s) is provided. Either cells were dispensed into 384-well plates for EC50 assays. To perform the assay for genotype 3 and 4, NS5A chimeric genotype 1b Conl replicons that encodes a Pi-RLuc reporter and either genotype 3a S52 strain NS5A gene or genotype 4a ED43 strain NS5A gene respectively, were transiently transfected (t) into Huh-Lunet cells, which were subsequently dispensed into 384-well plates. Compounds were dissolved in DMSO at a concentration of 10 mM and diluted in DMSO either manually or using an automated pipeting instrument. Serially 3-fold diluted compounds were either manually mixed with cell culture media and added to the seeded cells or directly added to the cells using an automated instrument. DMSO was used as a negative (solvent; no inhibition) control, and the protease inhibitor ITMN-191 was included at a concentration >100×EC50 as a positive control. 72 hours later, cells were lysed and Renilla luciferase activity quantified as recommended by the manufacturer (Promega-Madison, Wis.). Non-linear regression was performed to calculate EC50 values.
(§4) To determine the antiviral potency (EC50) against resistance mutants, resistance mutations, including M28T, Q30R, Q30H, Q30E, L31M, Y93C, Y93H, and Y93N in genotype 1a NS5A, Y93H and L31V/Y93H in genotype 1b NS5A, and Y93H for in genotype 3a NS5A, were introduced individually into either 1a Pi-Rluc or 1b Pi-Rluc replicons by site directed mutagenesis. Replicon RNA of each resistant mutant was transiently transfected into Huh-7-derived cured-51 cells and antiviral potency was determined on these transfected cells as described above.

[5] = system: stable HCV 1a RLuc replicon cells (genotype 1a H77 replicon); assay: HCV genotype 1a RLuc replicon reporter assay; format: cell-based; conditions: Hepatitis C virus; stable genotype 1a H77 RLuc replicon cells, 72 hours
[6] = system: NS5A chimeric genotype 1b Con1 replicon with genotype 4a ED43 strain NS5A gene; assay: HCV genotype 4a NS5A chimeric replicon assay; format: cell-based; conditions: Hepatitis C virus, 72 h, read-out: 4a (s) (nM)
[7] = system: Y93N in genotype 1a NS5A replicon; assay: Resistance mutant replicon assay, genotype 1a NS5A Y93N; format: cell-based, HCV; conditions: Hepatitis C virus, read-out: 1a Y93N (nM)
Method in brief: as §1

[8] = system: NS5A chimeric genotype 2a JFH-1 replicon with genotype 2a J6 strain NS5A gene (M31); assay: HCV genotype 2a J6 NS5A chimeric replicon assay, transient (t); format: cell-based; conditions: Hepatitis C virus, 72 h, read-out: 2a J6 (t) (nM)
[9] = system: stable HCV 2a JFH-1 Rluc replicon cells (L31 present in NS5A); assay: HCV genotype 2a JFH-1 RLuc replicon reporter assay; format: cell-based; conditions: Hepatitis C virus, 72 h, read-out: 2a JFH (nM)
[10] = system: stable HCV 1b RLuc replicon cells (genotype 1b Con1 replicon); assay: HCV genotype 1b RLuc replicon reporter assay; format: cell-based; conditions: Hepatitis C virus; stable genotype 1b Con1 RLuc replicon cells, 72 hours
Method in brief: as §2

[11] = system: NS5A chimeric genotype 2a JFH-1 replicon with genotype 2b MD2b-1 strain NS5A gene (M31); assay: HCV genotype 2b NS5A chimeric replicon assay, stable (s); format: cell-based; conditions: Hepatitis C virus, 72 h, read-out: 2b (s) (nM)
[12] = system: L31V/Y93H in genotype 1b NS5A replicon; assay: Resistance mutant replicon assay, genotype 1b NS5A L31V/Y93H; format: cell-based, HCV; conditions: Hepatitis C virus, read-out: 1b L31V/Y93H (nM)
Protocol: as §3, §4

[13] = system: Y93H in genotype 1a NS5A replicon; assay: Resistance mutant replicon assay, genotype 1a NS5A Y93H; format: cell-based, HCV; conditions: Hepatitis C virus, read-out: 1a Y93H (nM)
Method in brief: as §1

[14] = system: NS5A chimeric genotype 2a JFH-1 replicon with genotype 2b MD2b-1 strain NS5A gene (M31); assay: HCV genotype 2b NS5A chimeric replicon assay, transient (t); format: cell-based; conditions: Hepatitis C virus, 72 h, read-out: 2b (t) (nM)
Method in brief: as §2

[15] = IV and PO single dose pharmacokinetic studies in SD rats; format: in vivo; conditions: Sprague-Dawley, rat, plasma, male SD rats, IV infusion 1 mg/kg, oral gavage 2 mg/kg, read-out: Rat % F
Protocol: IV and PO Single Dose Pharmacokinetic Studies in SD Rats: The pharmacokinetics of selected compounds was characterized in male Sprague-Dawley (SD) rats (250-300 g). In this study, two groups of naïve purebred SD rats (N=3 per group, fasted over night) received the selected compound either as an intravenous (IV) infusion (1 mg/kg over 30 minutes) via the jugular vein or by oral gavage (2 mg/kg). The intravenous (IV) dosing vehicle was 5% ethanol, 35% polyethylene glycol 400 (PEG 400) and 60% water pH 2.0. The oral dosing vehicle was 5% ethanol, 55% PEG 400 and 40% citrate buffer pH 2.2.
Serial blood samples (approximately 0.3 mL each) were collected from jugular vein or other suitable vein at specified time points. For the IV infusion group, the blood samples were collected predose and at 0.25, 0.48, 0.58, 0.75, 1.5, 3, 6, 8, 12 and 24 hours after the start of infusion. For the oral group, the blood samples were collected predose and at 0.25, 0.50, 1, 2, 4, 6, 8, 12 and 24 hours after dosing. The blood samples were collected into Vacutainer™ tubes containing EDTA-K3 as the anti-coagulant and were centrifuged at approximately 4° C. to obtain plasma. The plasma samples were stored at −20° C. until analysis by LC/MS/MS.
A bioanalytical method utilizing high performance liquid chromatography coupled to tandem mass spectrometry (LC/MS/MS) was developed for analysis of the selected compound in rat plasma. Detection was performed using selected reaction monitoring (SRM); Ions representing the precursor (M+H)^+ species was selected in quadrupole 1 (Q1) and collided with argon gas in the collision cell (Q2) to generate specific product ion, which was subsequently monitored by quadrupole 3 (Q3). Standard curve and quality control samples were prepared in male rat plasma and processed in the same way as the test samples to generate quantitative data.
Pharmacokinetic parameters were generated using non-compartmental pharmacokinetic analysis (Phoenix WinNonlin, version 6.3). Values below the lower limit of quantification (LLOQ) were assigned a value of zero if predose and treated as missing thereafter. Area under the curve (AUC) was calculated using the linear trapezoidal rule. The oral bioavailability (% F) was determined by comparison of the area under the curve (AUC) of the compound and/or a metabolite generated in plasma following oral administration to that generated following intravenous administration.

Row | Structure (SMILES) | EC50 [1] [nM] | EC50 [2] [nM] | EC50 [3] [nM] | EC50 [4] [nM] | pEC50 [5] | EC50 [6] [nM] | EC50 [7] [nM] | EC50 [8] [nM] | EC50 [9] [nM] | pEC50 [10] | EC50 [11] [nM] | EC50 [12] [nM] | EC50 [13] [nM] | EC50 [14] [nM] | bioavailability [15] [%]
1 | COC(=O)N[C@H](C(=O)N1[C@@H](C)CC[C@H]1c1ncc(-c2ccc3c(c2)COc2cc4c(ccc5nc([C@@H]6CC[C@H](C)N6C(=O)[C@@H](NC(=O)OC)[C@@H]6CCCOC6)[nH]c54)cc2-3)[nH]1)C(C)C [Example AJ, Methyl{(1S)-2-[(2S,5S)-2-methyl-5-(9-{2-[(2S,5S)-1-{(2S)-2-[(methoxycarbonyl)amino]-3-methylbutanoyl}-5-methylpyrrolidin-2-yl]-1H-imidazol-5-yl}-1,11-dihydroisochromeno[4′,3′:6,7]naphtho[1,2-d]imidazol-2-yl)pyrrolidin-1-yl]-2-oxo-1-[(3S)-tetrahydro-2H-pyran-3-yl]ethyl}carbamate] | 2.7 | 0.035 | 3.73 | 0.16 | 10.80 | 0.018 | 4.3 | 0.059 | 0.019 | 10.68 | 0.057 | 44 |  |  | 
2 | COC(=O)N[C@H](C(=O)N1[C@@H](C)CC[C@H]1c1ncc(-c2ccc3c(c2)COc2cc4c(ccc5nc([C@@H]6CCCN6C(=O)[C@@H](NC(=O)OC)C6CCOCC6)[nH]c54)cc2-3)[nH]1)C(C)C [Comp 14, reference compound] |  |  |  | 1.2 | 10.60 |  | 1.75 | 0.053 | 0.01 | 10.60 |  | 0.13 | 3.66 | 0.036 | 6.88
3 | COC(=O)N[C@H](C(=O)N1[C@@H](C)CC[C@H]1c1ncc(-c2ccc3c(c2)COc2cc4c(ccc5nc([C@@H]6CC[C@H](C)N6C(=O)[C@@H](NC(=O)OC)[C@H]6CCCOC6)[nH]c54)cc2-3)[nH]1)C(C)C [Example AI, Methyl{(1S)-2-[(2S,5S)-2-methyl-5-(9-{2-[(2S,5S)-1-{(2S)-2-[(methoxycarbonyl)amino]-3-methylbutanoyl}-5-methylpyrrolidin-2-yl]-1H-imidazol-5-yl}-1,11-dihydroisochromeno[4′,3′:6,7]naphtho[1,2-d]imidazol-2-yl)pyrrolidin-1-yl]-2-oxo-1-[(3R)-tetrahydro-2H-pyran-3-yl]ethyl}carbamate] | 2.11 | 0.028 | 2.84 | 0.208 | 10.85 | 0.012 | 4.05 | 0.041 | 0.017 | 10.74 | 0.058 | 21.4 |  |  | 
